Test system: honey bees
Experiment: Detoxification effects: caged adult bees chronically exposed orally to 50 ppb Thiamethoxam with or without CMPs
Format: in vivo
Details: 50 ppb TXM, absence of CMPs
Experimental: A total of 70 plastic cages (15 cm×8 cm×10 cm) with a removable cover were used FIGS. 4A and B). Adult honey bees were collected from broods of at least seven colonies and homogenously distributed in all control and experimental cages to eliminate possible colony-level effects on the results. Cages were loaded with 100 bees per cage and then incubated in complete darkness at 30° C. and 70% relative humidity (RH). Bees were fed a sugar solution (50% w/v). The CMPs were administered at a concentration of 1% w/v in the sugar solution and delivered to experimental cages on day 2. Stock solutions of Thiamethoxam (TXM) (3-[(2-Chloro-1,3-thiazol-5-yl)methyl]-5-methyl-N-nitro-1,3,5-oxadiazinan-4-imine) were prepared from analytical grade TMX (Sigma Aldrich 37924-100MG-R) at concentration of 30 mg/L in E-pure water, and maintained at 4° C. The pesticide was administered at a concentration of 50 ppb on day 2. […]
Treatments were arranged in a completely randomized design. […] The mortality rates and feed consumption were recorded daily. Production and morphology of bee feces (frass) were assessed to ensure that CMPs passed through the bees digestive system with no harm. Bee behavior and activity (i.e. number of falls per 30 seconds, inability to climb, etc.) were also assessed. Dispensability of the CMPs in the sugar solutions were also assessed during the experiments. […]

**Q.** What does the source list for `CN1COCN(Cc2cnc(Cl)s2)C1=N[N+](=O)[O-]` [TXM, 3-[(2-Chloro-1,3-thiazol-5-yl)methyl]-5-methyl-N-nitro-1,3,5-oxadiazinan-4-imine]?
**A.** bee deaths (daily die-off) on day 2: 2.5%; bee deaths (daily die-off) on day 5: 21%
